Experimental data published in ChEMBL document CHEMBL5728881, “Substituted 6-azabenzimidazole compounds” (2021).

Biological target: Mitogen-activated protein kinase kinase kinase kinase 1 (Homo sapiens, UniProt Q92918)
Test: TBHPK1 IC50 Assay: Ten nanoliters of test compounds dissolved in DMSO at various concentrations were dispensed into a 384-well ProxiPlate (PerkinElmer #6008289). Five microliters of a solution of recombinant HPK1 diluted in HPK1 kinase assay buffer (50 mM BES [N,N-Bis(2-hydroxyethyl)-2-aminoethanesulfonic acid], pH 7.0; 10 mM magnesium chloride; 0.01% Triton X-100; 1 mM dithiothreitol; 0.01% bovine serum albumin; 0.1 mM sodium orthovanadate) was added to the compound-containing plate and was incubated for 15 minutes at 25° C. Five microliters of a mixture of ATP (Sigma-Aldrich #A6559) and peptide substrate STK S1 (Cisbio #61ST1BLC) diluted in HPK1 kinase assay buffer was then added to start the reaction. Final concentrations were 0.15 nM for HPK1, 10 μM for ATP, and 1 μM for the STK S1 peptide substrate. The reaction mixture was incubated at 25° C. for 3 hours and was stopped with the addition of 10 μl of an EDTA (Ethylenediaminetetraacetic acid)-containing detection buffer (Cisbio #62SDBRDF) supplemented with Europium cryptate-labeled anti-phospho-serine/threonine antibodies (Cisbio #62ST1PEJ) and XL665-labeled streptavidin (Cisbio #610SAXLG). The mixture was incubated for 16 hours at room temperature and peptide phosphorylation was measured by time-resolved fluorescence energy transfer (665 nm/620 nm) on an Envision plate reader (PerkinElmer).

Mitogen-activated protein kinase kinase kinase kinase 1, sequence (Q92918 whole entry): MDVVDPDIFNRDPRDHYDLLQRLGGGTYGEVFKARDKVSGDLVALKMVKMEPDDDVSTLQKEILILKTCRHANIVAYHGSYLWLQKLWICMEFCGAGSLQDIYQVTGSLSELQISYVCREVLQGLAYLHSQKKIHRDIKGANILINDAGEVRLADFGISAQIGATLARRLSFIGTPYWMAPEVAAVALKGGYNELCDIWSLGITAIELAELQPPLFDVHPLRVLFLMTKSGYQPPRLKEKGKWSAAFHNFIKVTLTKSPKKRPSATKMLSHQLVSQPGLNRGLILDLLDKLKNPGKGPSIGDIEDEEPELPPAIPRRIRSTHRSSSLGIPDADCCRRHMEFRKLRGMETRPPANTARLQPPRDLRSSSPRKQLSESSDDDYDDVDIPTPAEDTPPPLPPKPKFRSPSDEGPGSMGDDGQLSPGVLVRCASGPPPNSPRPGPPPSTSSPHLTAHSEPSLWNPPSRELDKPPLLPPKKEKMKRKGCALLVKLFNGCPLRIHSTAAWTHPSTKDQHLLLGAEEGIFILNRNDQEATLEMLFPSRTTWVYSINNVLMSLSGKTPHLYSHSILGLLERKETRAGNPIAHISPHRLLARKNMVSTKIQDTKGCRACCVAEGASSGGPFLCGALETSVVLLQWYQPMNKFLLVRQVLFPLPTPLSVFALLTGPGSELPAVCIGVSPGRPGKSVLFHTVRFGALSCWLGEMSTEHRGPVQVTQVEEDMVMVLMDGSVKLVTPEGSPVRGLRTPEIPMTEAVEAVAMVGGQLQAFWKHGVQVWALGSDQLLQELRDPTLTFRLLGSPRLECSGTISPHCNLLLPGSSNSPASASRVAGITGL

SMILES	IC50 [nM]
CC(C)n1cnc2cc(-c3cnc4c(c3)N([C@H]3C[C@](C)(N5CCC6CC6C5)C3)C(=O)C4(C)C)nc(Nc3cc(C(=O)NC4(CF)CC4)c(Cl)c(F)c3F)c21 (some centres not stated)	0.09
CNC(=O)c1cc(Nc2nc(-c3ccc4c(c3)N([C@H]3C[C@@H](N5CC[C@H](C(F)F)C5)C3)C(=O)C4(C)C)cc3ncn(C(C)C)c23)ccc1C	0.2
